{"source": "patent EP0255256A2", "about": "“Antibiotics produced by actinomadura parvosata” (SMITHKLINE BECKMAN CORPORATION, priority 1986, dated 1988)", "key": {"[1]": {"test_system": "Staph. aureus HH127", "test": "Mouse protection assay", "assay_type": "in vivo", "conditions": "Staphylococcus aureus"}, "[2]": {"test": "Serum half-life and urine concentration in mice (disk agar diffusion bioassay)", "conditions": "mouse, in vivo; strain CD-1 mice; antibiotic activity in blood serum by disk agar diffusion, Bacillus subtilis ATCC 6633 indicator", "method": "The antibiotic compounds of the present invention also have a very long serum half-life. The compounds of the present invention have a serum half-life of 12 hours compared to 0.3 hour for vancomycin. […] Antibiotic activity in blood serum was evaluated by disk agar diffusion with penicillin assay agar that was seeded with a Bacillus subtilis ATCC 6633 spore suspension as the indicator. Serum samples were evaluated against standards diluted in mouse serum and urines were evaluated against standards prepared in 1% pH 6 phosphate buffer. Assays were incubated at 28°C. […] The long half-life of the compounds of the present invention indicate usefulness prophylactically as an aid in prevention of infection."}, "[3]": {"test_system": "Staph. aureus 2630", "test": "Mouse protection assay", "assay_type": "in vivo", "conditions": "Staphylococcus aureus, 2630, 1 h"}, "[4]": {"test_system": "Strep. faecalis 34358", "test": "Mouse protection assay", "assay_type": "in vivo"}, "[5]": {"test_system": "Staph. epidermidis 2261", "test": "MIC, standard microtiter assay", "assay_type": "cell-based", "conditions": "Staphylococcus epidermidis, 2261, read-out: MIC in μg/ml", "method": "(§1) The in vitro minimal inhibitory concentration (MIC) and the in vitro minimal bactericidal concentration (MBC) of the AAJ-271 aglycones, pseudo-aglycone and vancomycin were determined for a number of microorganisms using the standard microtiter assay procedures."}, "[6]": {"test_system": "Staph. aureus 209P vancomycin resistant mutant", "test": "MIC, standard microtiter assay", "assay_type": "cell-based", "conditions": "Staphylococcus aureus, read-out: MIC in μg/ml", "method": "as §1"}, "[7]": {"test_system": "Staph. haemolyticus 651", "test": "Mouse protection assay", "assay_type": "in vivo", "conditions": "Staphylococcus haemolyticus, 1 h; mice; Staph. haemolyticus 651, Dosage as No. of LD50's=9; treatment one hour post infection; Table IV"}, "[8]": {"test_system": "Staph. aureus 2620", "test": "MBC, standard assay procedures", "assay_type": "cell-based", "method": "(§2) The in vitro minimal bactericidal concentration (MBC) of the AAJ-271 C, C2 and C3 factors and vancomycin were determined for a number of microorganisms using standard assay procedures.\nas §1"}, "[9]": {"test_system": "Strep. faecalis 34358", "test": "MBC, standard assay procedures", "assay_type": "cell-based", "method": "as §2, §1"}, "[10]": {"test_system": "Staph. aureus 675", "test": "MBC, standard assay procedures", "assay_type": "cell-based", "method": "as §2, §1"}, "[11]": {"test_system": "Staph. epidermidis 2479", "test": "MBC, standard assay procedures", "assay_type": "cell-based", "method": "as §2, §1"}, "[12]": {"test_system": "Staph. haemolyticus 651", "test": "MBC, standard assay procedures", "assay_type": "cell-based", "method": "as §2, §1"}, "[13]": {"test_system": "Strep. faecalis 657", "test": "MBC, standard assay procedures", "assay_type": "cell-based", "method": "as §2, §1"}}, "note": "Where two headings read alike, the source gives them in different places."}
{"smiles": "CN[C@H](CC(C)C)C(=O)N[C@H]1C(=O)N[C@@H](CC(N)=O)C(=O)N[C@H]2C(=O)N[C@H]3C(=O)N[C@H](C(=O)N[C@H](C(=O)O)c4cc(O)cc(O)c4-c4cc3ccc4O)[C@H](O)c3ccc(c(Cl)c3)Oc3cc2cc(c3O[C@@H]2O[C@H](CO)[C@@H](O)[C@H](O)[C@H]2O[C@H]2C[C@](C)(N)[C@H](O)[C@H](C)O2)Oc2ccc(cc2Cl)[C@H]1O", "note": "[Vancomycin, vancomycin]", "values": [{"measurement": "ED50", "setting": "[1]; HH127, 1 h", "value": 0.26, "unit": "mg/kg"}, {"measurement": "ED50", "setting": "[1]; HH127, iv, 1 h", "value": 2.8, "unit": "mg/kg"}, {"measurement": "half-life", "setting": "[2]", "value": 18, "unit": "min"}, {"measurement": "ED50", "setting": "[3]", "value": 0.78, "unit": "mg/kg"}, {"measurement": "ED50", "setting": "[4]; Enterococcus faecalis, 34358, 1 h", "value": 1.25, "unit": "mg/kg"}, {"measurement": "ED50", "setting": "[4]; Enterococcus faecalis, 34358, iv, 1 h", "value": 1.3, "unit": "mg/kg"}, {"measurement": "MIC", "setting": "[5]", "value": 6.3, "unit": "µg/mL"}, {"measurement": "MIC", "setting": "[6]", "value": "> 100", "unit": "µg/mL"}, {"measurement": "ED50", "setting": "[7]", "value": 2.2, "unit": "mg/kg"}, {"measurement": "MBC", "setting": "[8]; Staphylococcus aureus, 2620, read-out: MBC in μg/ml, Staph. aureus 2620, Table IX", "value": 3.1, "unit": "µg/mL"}, {"measurement": "MBC", "setting": "[8]; Staphylococcus aureus, 2620, read-out: MBC in μg/ml, Staph. aureus 2620, Table VIII", "value": 1.6, "unit": "µg/mL"}, {"measurement": "MBC", "setting": "[8]; Staphylococcus aureus, IIIB, read-out: MBC in μg/ml, Staph. aureus 2620, Table IIIB", "value": 3.1, "unit": "µg/mL"}, {"measurement": "MBC", "setting": "[9]; Enterococcus faecalis, 34358, read-out: MBC in μg/ml, Strep. faecalis 34358, Table IX", "value": 12.5, "unit": "µg/mL"}, {"measurement": "MBC", "setting": "[9]; Enterococcus faecalis, 34358, read-out: MBC in μg/ml, Strep. faecalis 34358, Table VIII", "value": 50, "unit": "µg/mL"}, {"measurement": "MBC", "setting": "[9]; Enterococcus faecalis, read-out: MBC in μg/ml, Strep. faecalis 34358, Table", "value": 12.5, "unit": "µg/mL"}, {"measurement": "MBC", "setting": "[10]; Staphylococcus aureus, 675, read-out: MBC in μg/ml, Staph. aureus 675, Table IX", "value": 6.3, "unit": "µg/mL"}, {"measurement": "MBC", "setting": "[10]; Staphylococcus aureus, 675, read-out: MBC in μg/ml, Staph. aureus 675, Table VIII", "value": 3.1, "unit": "µg/mL"}, {"measurement": "MBC", "setting": "[10]; Staphylococcus aureus, IIIB, read-out: MBC in μg/ml, Staph. aureus 675, Table IIIB", "value": 6.3, "unit": "µg/mL"}, {"measurement": "MBC", "setting": "[11]; Staph. epidermidis 2479, Table IX", "value": 6.3, "unit": "µg/mL"}, {"measurement": "MBC", "setting": "[11]; Staphylococcus epidermidis, 2479, read-out: MBC in μg/ml", "value": 6.3, "unit": "µg/mL"}, {"measurement": "MBC", "setting": "[11]; Staphylococcus epidermidis, IIIB, read-out: MBC in μg/ml", "value": 6.3, "unit": "µg/mL"}, {"measurement": "MBC", "setting": "[12]; Staphylococcus haemolyticus, 651, read-out: MBC in μg/ml, Staph. haemolyticus 651, Table IX", "value": 12.5, "unit": "µg/mL"}, {"measurement": "MBC", "setting": "[12]; Staphylococcus haemolyticus, 651, read-out: MBC in μg/ml, Staph. haemolyticus 651, Table VIII", "value": 3.1, "unit": "µg/mL"}, {"measurement": "MBC", "setting": "[12]; Staphylococcus haemolyticus, IIIB, read-out: MBC in μg/ml, Staph. haemolyticus 651, Table IIIB", "value": 12.5, "unit": "µg/mL"}, {"measurement": "MBC", "setting": "[13]; Enterococcus faecalis, 657, read-out: MBC in μg/ml, Strep. faecalis 657, Table IX", "value": 6.3, "unit": "µg/mL"}, {"measurement": "MBC", "setting": "[13]; Enterococcus faecalis, 657, read-out: MBC in μg/ml, Strep. faecalis 657, Table VIII", "value": 3.1, "unit": "µg/mL"}, {"measurement": "MBC", "setting": "[13]; Enterococcus faecalis, IIIB, read-out: MBC in μg/ml, Strep. faecalis 657, Table IIIB", "value": 6.3, "unit": "µg/mL"}]}
